Reference: US12668591B2, “1,2,4-oxadiazole derivatives as histone deacetylase 6 inhibitors” (Oryzon Genomics, S.A., priority 2017, dated 2026)

Molecular target: T1, HDAC6 (Homo sapiens, UniProt Q9UBN7)
T1 sequence (Q9UBN7 1-1215): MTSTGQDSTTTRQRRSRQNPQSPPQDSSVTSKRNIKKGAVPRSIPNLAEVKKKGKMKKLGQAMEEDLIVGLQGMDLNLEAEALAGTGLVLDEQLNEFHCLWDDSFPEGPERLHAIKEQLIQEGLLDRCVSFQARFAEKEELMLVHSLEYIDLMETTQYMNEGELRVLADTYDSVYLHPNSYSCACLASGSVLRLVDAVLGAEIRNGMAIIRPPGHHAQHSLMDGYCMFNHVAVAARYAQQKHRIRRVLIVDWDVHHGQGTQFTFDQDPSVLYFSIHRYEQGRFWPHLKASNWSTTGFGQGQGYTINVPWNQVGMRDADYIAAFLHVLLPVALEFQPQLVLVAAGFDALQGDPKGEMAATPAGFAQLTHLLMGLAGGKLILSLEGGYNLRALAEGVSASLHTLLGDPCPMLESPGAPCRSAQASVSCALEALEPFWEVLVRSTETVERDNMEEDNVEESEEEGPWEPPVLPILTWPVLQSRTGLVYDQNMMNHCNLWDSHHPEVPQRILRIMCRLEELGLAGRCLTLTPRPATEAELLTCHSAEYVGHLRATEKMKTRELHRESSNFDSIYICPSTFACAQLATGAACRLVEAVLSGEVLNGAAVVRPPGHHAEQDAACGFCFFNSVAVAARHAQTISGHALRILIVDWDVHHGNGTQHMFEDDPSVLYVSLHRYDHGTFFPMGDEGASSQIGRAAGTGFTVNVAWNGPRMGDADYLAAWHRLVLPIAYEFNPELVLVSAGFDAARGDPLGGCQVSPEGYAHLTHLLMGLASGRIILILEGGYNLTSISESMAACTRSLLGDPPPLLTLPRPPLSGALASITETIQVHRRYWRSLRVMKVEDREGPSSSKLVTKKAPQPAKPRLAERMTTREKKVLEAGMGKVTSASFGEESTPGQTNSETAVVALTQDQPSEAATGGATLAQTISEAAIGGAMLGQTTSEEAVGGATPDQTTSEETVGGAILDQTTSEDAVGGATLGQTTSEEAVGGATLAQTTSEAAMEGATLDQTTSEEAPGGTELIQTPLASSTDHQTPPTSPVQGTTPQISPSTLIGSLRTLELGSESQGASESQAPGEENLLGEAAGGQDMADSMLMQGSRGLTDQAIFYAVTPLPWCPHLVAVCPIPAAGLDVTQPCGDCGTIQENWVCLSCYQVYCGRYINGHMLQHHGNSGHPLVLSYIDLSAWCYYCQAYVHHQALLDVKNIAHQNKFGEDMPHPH
Assay: In vitro cell-based assay: acetylation levels of Alpha-Tubulin by Western Blot in MOLP8 cells
Parameters: endogenous in cells; host or cells: MOLP8
Conditions: 18 h, acetyl-alpha-tubulin relative band intensity, ACY-1215 1 μM = 100%
Method: In Vitro Cell-Based Assay
In order to determine the cellular activity of HDAC6 upon treatment with HDAC6 inhibitors, acetylation levels of Alpha-Tubulin (a HDAC6-specific substrate) were measured by Western Blot. For this, MOLP8 cells were seeded in 6-well plates at a cell density of 500.000 cells/well and treated with the selected compounds at 5 and 1 μM for 18 h at 37° C. and 5% CO2 in a humidified tissue culture incubator. Consecutively, cell pellets were collected and whole protein extracts prepared using RIPA buffer (SIGMA) supplemented with 1× protease inhibitors (cOmplete mini, Roche). Protein concentration was determined with Bradford's reagent (Bio-Rad) as per manufacturer's instructions, and 7 μg of total protein were loaded into pre-cast 10% NuPAGE Novex gels (Life Technologies). Gels were run in […] (Life Technologies) and proteins were transferred using the iBlot 2 Dry Blotting System (Life Technologies). Blots were subsequently rinsed in distilled water and stained with Ponceau S solution (SIGMA). Blots were then washed in distilled water to remove Ponceau excess and scanned with the Epson Perfection V600 Photo professional Scanner. After this, blots were de-stained and blocked in 5% milk/PBS-Tween 0.1% for 1 h at room temperature followed by incubation with anti-Acetyl-alpha Tubulin (SIGMA cat. #T7451, 1:10.000 dilution) and anti-Beta-actin (SIGMA, cat. #A5316, 1:2.000 dilution) primary antibodies in 5% milk/PBS-T 0.1%, overnight at 4° C. on a shaking platform. After incubation, blots were washed 3 times for 5 minutes each in PBS-Tween 0.5% and incubated with anti-mouse HRP-conjugated secondary antibody (Jackson Immuno Research, cat. #115-035-068) at 1:8.000 in 5% milk/PBS-Tween 0.1%, 1 h at room temperature on a shaking platform. After 3 washes of 5 minutes each with PBS-Tween 0.5% and 1 wash in PBS 1×, blots were developed with ECL Plus (GE Healthcare) and the chemiluminescent reaction imaged with the G:Box Chemi XRQ (Syngene) imaging system. WB and Ponceau images were analysed with ImageJ software, WB band intensities normalized by either total protein or Beta-actin content and made relative to ACY-1215 1 μM (equivalent to 100%). ACY-1215 is a HDAC6 inhibitor, and is also known as ricolinostat, with chemical name 2-(diphenylamino)-N-[7-(hydroxyamino)-7-oxoheptyl]-5-pyrimidinecarboxamide. Percentage of band intensities was classified as follows: […]

Cellular activity @1 uM	Cellular activity @5 uM	Compound
− (<50)	++ (150-300)	CCCn1ccc2cc(-c3cc(-c4noc(C(F)(F)F)n4)ccn3)ncc21 [Example 1a, 3-(2-(1-Propyl-1H-pyrrolo[2,3-c]pyridin-5-yl)pyridin-4-yl)-5-(trifluoromethyl)-1,2,4-oxadiazole]
− (<50)	+ (50-150)	FC(F)(F)c1nc(-c2ccnc(-c3ccc(OCCCn4cccn4)cn3)c2)no1 [Example 1ag, 3-(5′-(3-(1H-Pyrazol-1-yl)propoxy)-[2,2′-bipyridin]-4-yl)-5-(trifluoromethyl)-1,2,4-oxadiazole]
− (<50)	+ (50-150)	CN(CCCN1CCC(F)(F)CC1)c1ccc(-c2cc(-c3noc(C(F)(F)F)n3)ccn2)nc1 [Example 1l, N-(3-(4,4-Difluoropiperidin-1-yl)propyl)-N-methyl-4′-(5-(trifluoromethyl)-1,2,4-oxadiazol-3-yl)-[2,2′-bipyridin]-5-amine]
− (<50)	+ (50-150)	CCN(CC)CCCN(C)c1ccc(-c2cc(-c3noc(C(F)(F)F)n3)ccn2)nc1 [Example 1n, N^1,N^1-Diethyl-N^3-methyl-N^3-(4′-(5-(trifluoromethyl)-1,2,4-oxadiazol-3-yl)-2,2′-bipyridin-5-yl)propane-1,3-diamine]
+ (50-150)	++ (150-300)	Cn1ccnc1CCn1nc(-c2cc(-c3noc(C(F)(F)F)n3)ccn2)c2ncccc21 [Example 1aac]
+ (50-150)	+ (50-150)	CN1CCC(CNC(=O)c2ccc(-c3cc(-c4noc(C(F)(F)F)n4)ccn3)nc2)CC1 [Example 1an, N-((1-Methylpiperidin-4-yl)methyl)-4′-(5-(trifluoromethyl)-1,2,4-oxadiazol-3-yl)-[2,2′-bipyridine]-5-carboxamide]
+ (50-150)	+ (50-150)	O=C(CCc1ccccc1)Nc1ccnc(-c2cc(-c3noc(C(F)(F)F)n3)ccn2)c1 [Example 1ad, 3-Phenyl-N-(4′-(5-(trifluoromethyl)-1,2,4-oxadiazol-3-yl)-[2,2′-bipyridin]-4-yl)propanamide]
− (<50)	+ (50-150)	COCCn1ncc2cc(-c3cc(-c4noc(C(F)(F)F)n4)ccn3)ncc21 [Example 1ay, 3-(2-(1-(2-Methoxyethyl)-1H-pyrazolo[3,4-c]pyridin-5-yl)pyridin-4-yl)-5-(trifluoromethyl)-1,2,4-oxadiazole]
+ (50-150)	+ (50-150)	COCCn1c(C(=O)N(C)C)cc2cc(-c3cc(-c4noc(C(F)(F)F)n4)ccn3)ncc21 [Example 1ar, 1-(2-Methoxyethyl)-N,N-dimethyl-5-(4-(5-(trifluoromethyl)-1,2,4-oxadiazol-3-yi)pyridin-2-yl)-1H-pyrrolo[2,3-c]pyridine-2-carboxamide]
